These results are taken from patent US4804668A, “Thiazole derivatives and medical compositions thereof” (Zenyaku Kogyo Kabushiki Kaisha, priority 1985, dated 1989).

The LD50 is the dose expected to kill half of the subjects tested. A higher LD50 goes with lower toxicity.

One series concerns isolated left atrium. The experiment in a line: Effect on contractile force of isolated left atrium (electrically stimulated, Magnus's bath). The note with it: Corresponding Concentration 1 × 10^-4 (mol); isolated guinea pig left atrium, Krebs-Henseleit solution, stimulated at 0.5 cps, 5 msec, 20% above threshold. Also on record: species or system guinea pig (male Hartley, 7 weeks old). As to the method:
(1) The contractile force of left atrium was tested according to the method described in Basic Lectures of Medicine Development, Volume V, Pharmacological Test Methods, Part 2, page 535 (1971). A 7-weeks-old male Hartley guinea pig (having a bodyweight of about 350 g) was killed by a blow on a head. The chest was opened and the heart was removed and placed in Krebs-Henseleit solution (prepared by adding distilled water to 6.92 g of sodium chloride, 0.35 g of calcium chloride, 0.29 g of magnesium sulfate, 0.16 g of mono-basic potassium phosphate, 2.1 g of sodium bicarbonate and 1.8 g of glucose so that the total amount was 1 l) which sufficiently bubbled with oxygen gas. Threads were tied to each tip of the left atrium. One thread was attached to a fixed pin in Magnus's bath and the other to a force-displacement transducer connected to an electric amplifier and recorder. The atrium was stimulated electrically at 0.5 cps, 5 msec and a voltage of 20% above threshold. The preparation is mounted in Krebs-Henseleit solution through which 95% oxygen gas and 5% carbon dioxide was blown. Then the samples were added.
Further, the above-mentioned tests were carried out by using following apparatuses.
Magnus's bath: supplied by Kabushiki Kaisha Natsume Seisakusho
Recorder: Model WI-680G supplied by Nippon Koden Kabushiki Kaisha
Force displacement transducer: supplied by Nippon Koden Kabushiki Kaisha
Electrical amplifier: Model AP-600G supplied by Nippon Koden Kabushiki Kaisha
Programmed electrosphygmonometer: supplied by Nippon Koden Kabushiki Kaisha

Series [1] in a line: Acute toxicity (Litchfield-Wilcoxon method), intraperitoneal injection. Also noted: species or system mouse (6-weeks-old male ddY). As to conditions: mouse, in vivo, ip, male ddY mice, 6 weeks old, 19-24 g. As to the method:
(2) The acute toxicity of the compound of the formula I was determined according to the Litchfield-Wilcoxon method, J. Pharm. Exp. Ther., 96, 99 (1949) using 6-weeks-old male ddY mice (having a bodyweight of 19-24 g) while administrating the sample compound in intraperitonial injection.

With `Cc1nc(C(N)=O)sc1-c1ccncc1` [4-Methyl-5-(4-pyridinyl)-thiazole-2-carboxamide], the “Maximum Contractile Force” value in the series on isolated left atrium was 1,325 ± 132 mg. The 50% lethal dose (LD50) in series [1] stood at 230 mg/kg.

For `COC(=O)c1nc(C)c(-c2ccncc2)s1` [Methyl 4-methyl-5-(4-pyridinyl)-thiazole-2-carboxylate], the “Maximum Contractile Force” value in the series with isolated left atrium turned out to be 446 ± 91 mg.

Regarding `Cc1nc(C#N)sc1-c1ccncc1` [R1 = --CN, R2 = --CH3, R3 = 4-pyridinyl, 2-cyano-4-methyl-5-(4-pyridinyl)-thiazole], in the series with isolated left atrium, the “Maximum Contractile Force” value was found to be 558 ± 123 mg.

Take `CNC(=O)c1nc(C)c(-c2ccncc2)s1` [R1 = --CONHCH3, R2 = --CH3, R3, N,4-Dimethyl-5-(4-pyridinyl)-thiazole-2-carboxamide]: the “Maximum Contractile Force” value in the series on isolated left atrium amounted to 510 ± 45 mg.
